Data on 30 compounds can be found in patent publication US20160002247A1, “8-SUBSTITUTED IMIDAZOPYRIMIDINONE DERIVATIVE HAVING AUTOTAXIN INHIBITORY ACTIVITY” (THE UNIVERSITY OF TOKYO, priority 2013, published 2016).

Like-named read-outs stand apart in the source and are kept apart here. Where only a bound is given, the exact number is not on record here.

For this experiment, the target named is T1, Human autotaxin enzyme (Homo sapiens, UniProt Q13822).
T1 construct: purchased R&D System
The experiment in a line: Evaluation of autotaxin inhibitor, Method B (Test Example 2): TG-mTMP fluorescence. Format: biochemical. How it is done: (Method B) Evaluation of Autotaxin Inhibitor
Solution A containing 25 mM Tris-HCl buffer (pH7.5), 100 mM NaCl, 5 mM MgCl2 and 0.1% BSA was prepared. Human autotaxin enzyme (purchased from R&D System) was diluted with Solution A, and 5 μL of which was added to a solution of test compound in DMSO. Furthermore, 5 μl of 0.5 μM TG-mTMP in Solution A was added and allowed to react at room temperature for 2 hours. 5 μl of 150 mM EDTA in Solution A was added to quench the reaction, and the fluorescent dye TokyoGreen, which was produced by the reaction, was detected. The fluorescence was detected using ViewLux (PerkinElmer, Inc.) with an excitation wavelength of 480 nm and a fluorescence wavelength of 540 nm.

Setting [1] is: Assay Method B (Test Example 2), human autotaxin, read-out: Inhibitory Activity (autotaxin enzyme inhibitory activity, IC50 class).
Setting [2] is: Assay Method: Method B (Test Example 2), read-out: Inhibitory Activity (Enzyme Inhibitory Activity, IC50).

As a reminder, the IC50 is the concentration that gives 50% inhibition. Consider `CCOC(=O)Cn1c(C)cc(=O)n2cc(-c3ccc(Cl)cc3)nc12` [Compound 20], for which, for the setting “Inhibitory Activity (Enzyme Inhibitory Activity, IC50), Assay Method: Method B (Test Example 2)”, the IC50 was < 10 nM. On to `CCCCCn1c(N2CCN(C)CC2)cc(=O)n2cc(-c3ccc(Cl)cc3)nc12` [Compound 232], for which, under setting [1], the IC50 was < 10 nM. Same read-out and setting: to `CCCCCn1c(C)c(CCC(=O)OCC)c(=O)n2cc(-c3ccc(Cl)cc3)nc12` [Compound 200] belongs < 10 nM. On to `CCC(=O)C(C)n1c(C)cc(=O)n2cc(-c3ccc(Cl)cc3)nc12` (stereo not drawn) [Compound 51], for which the IC50 under setting [2] was 10 to 100 nM. Consider `CCCCCn1c(C)cc(=O)n2c(CN)c(-c3ccc(Cl)cc3)nc12` [Compound 172], for which the IC50 under setting [1] was > 1000 nM. Turning to `Cc1cc(=O)n2cc(-c3ccc(Cl)cc3)nc2n1Cc1ccccc1` [Compound 13], under setting [2], the concentration for half-maximal inhibition (IC50) lay within 10 to 100 nM.

For `N#Cc1ccc(-c2cn3c(=O)cc(NCc4ccc(C(=O)O)cc4)n(CCCC(F)(F)F)c3n2)cc1` [Compound 289], the IC50 under setting [1] was < 10 nM. With `CCCCCn1c(C)c(C#N)c(=O)n2cc(-c3ccc(Cl)cc3)nc12` [Compound 184], the IC50 under setting [1] is > 1000 nM.

`CCCCCn1c(NC2C[C@@H]3CC[C@H]2C3)cc(=O)n2cc(-c3ccc(Cl)cc3)nc12` (stereo partly drawn) [Compound 252] displayed a half-inhibitory concentration (IC50) (Inhibitory Activity (autotaxin enzyme inhibitory activity, IC50 class), Assay Method B (Test Example 2), human autotaxin) of 10 to 100 nM. As for `CCCCCn1c(-c2cc3ccccc3s2)cc(=O)n2cc(-c3ccc(Cl)cc3)nc12` [Compound 393], the IC50 under setting [1] lay within 10 to 100 nM. For `CCC/C=C/n1c(C)cc(=O)n2cc(-c3ccc(Cl)cc3)nc12` [Compound 44], the IC50 under setting [2] fell in the range of 10 to 100 nM. Turning to `Cc1cc(=O)n2cc(-c3ccc(Cl)cc3)nc2n1Cc1ccc(-c2ccccc2)cc1` [Compound 88], the IC50 under setting [1] lay in the range of 100 to 1000 nM.

Take `CCCCCn1c(C)cc(=O)n2cc(C3CCCCC3)nc12` [Compound 139]: under setting [1], the IC50 lay in the range of 100 to 1000 nM. As for `CCCCCn1c(N2CCC2)cc(=O)n2cc(-c3ccc(Cl)cc3)nc12` [Compound 196], the 50% inhibitory concentration (IC50) under setting [1] is < 10 nM. Consider `Cc1cc(=O)n2cc(-c3ccc(Cl)cc3)nc2n1CC(C)C` [Compound 78], for which the half-inhibitory concentration (IC50) under setting [2] was in the range of 10 to 100 nM. On the same count and under the same terms, to `Cc1cc(=O)n2cc(-c3ccc(Cl)cc3)nc2n1CC1CCCCC1` [Compound 58] belongs 10 to 100 nM. Regarding `CCCCCn1c(C)cc(=O)n2cc(-c3ccccc3F)nc12` [Compound 163], the IC50 under setting [1] lay in the range of 100 to 1000 nM. On the same count and under the same terms, to `CCCCCn1c(N2CCCC2CCCC)cc(=O)n2cc(-c3ccc(Cl)cc3)nc12` (stereo not drawn) [Compound 277] belongs 10 to 100 nM. Regarding `CCC(CC)Cn1c(C)cc(=O)n2cc(-c3ccc(Cl)cc3)nc12` [Compound 87], the 50% inhibitory concentration (IC50) under setting [1] was in the range of 10 to 100 nM. `CCCCCn1c(NCCC)cc(=O)n2cc(-c3ccc(Cl)cc3)nc12` [Compound 188]: the concentration for half-maximal inhibition (IC50) under setting [1] was in the range of 10 to 100 nM. Take `CCCCCn1c(OC2CCN(C)CC2)cc(=O)n2cc(-c3ccc(Cl)cc3)nc12` [Compound 193]: under setting [1], the IC50 is < 10 nM. As for `CCOCCn1c(C)cc(=O)n2cc(-c3ccc(Cl)cc3)nc12` [Compound 26], under setting [2], the half-maximal inhibitory concentration (IC50) was 10 to 100 nM. Take `CCCCCn1c(C)c(Cc2ccccc2)c(=O)n2cc(-c3ccc(Cl)cc3)nc12` [Compound 203]: the IC50 under setting [1] is 10 to 100 nM. Regarding `Cc1cc(=O)n2cc(-c3ccc(Cl)cc3)nc2n1CCc1ccccc1` [Compound 82], the IC50 under setting [2] was 10 to 100 nM. For `CCCCCn1c(OC(C)C)cc(=O)n2cc(-c3ccc(Cl)cc3)nc12` [Compound 272], the half-maximal inhibitory concentration (IC50) under setting [1] was 10 to 100 nM. On to `CCCCCn1c(N2CCOCC2)cc(=O)n2cc(-c3ccc(Cl)cc3)nc12` [Compound 234], for which the concentration for half-maximal inhibition (IC50) under setting [1] is < 10 nM.

On to `CCCCCn1c(OC(C)(C)C)cc(=O)n2cc(-c3ccc(Cl)cc3)nc12` [Compound 270], for which the IC50 under setting [1] fell in the range of 100 to 1000 nM. As to `CCCCCn1c(C)cc(=O)n2cc(-c3coc4ccccc34)nc12` [Compound 140], the IC50 under setting [1] was in the range of 100 to 1000 nM. On to `CCCCCn1c(-c2ccccc2OC)cc(=O)n2cc(-c3ccc(Cl)cc3)nc12` [Compound 395], for which, under setting [1], the half-maximal inhibitory concentration (IC50) is 10 to 100 nM. With `N#Cc1ccc(-c2cn3c(=O)cc(-c4ccc(C(=O)NCCN5CCOCC5)cc4)n(CCCC(F)(F)F)c3n2)cc1` [Compound 389], the IC50 under setting [1] was < 10 nM.
